# Legend:
# human GLP-1R receptor = target: T1, human GLP-1R receptor (Homo sapiens, UniProt P43220); experiment: GLP-1R low expression cell assay (cAMP TR-FRET, CHO-K1_hGLP-1Rlow_clone10 cells); assay type: cell-based; conditions: for EC50: cAMP TR-FRET, 30 min at 25° C.; for Emax: maximum activation relative to control GLP-1 peptide agonist
# T1 construct: expressed in transfected cells
# Outline: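 CHO-K1 cells stably expressing low surface human GLP-1R (clone10), 1,000 cells/well, exposed to 10-point 3-fold compound dilutions for 30 min at 25 °C. cAMP measured by TR-FRET (Eu-cAMP tracer/ULight-anti-cAMP, 15 min). EC50 from Hill fit of duplicate percent activation relative to a parallel GLP-1 control agonist.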
# [1] = Rat pharmacokinetics, oral dosing; assay type: in vivo, Sprague-Dawley rats; conditions: male, Sprague-Dawley, oral dosing at 3 mg/kg, plasma; for half-life: read-out: Rat T1/2
# Procedure: Intravenous dosing: Compounds were formulated at 1.0 mg/mL in a solution comprising 5% polyethylene glycol 400 and 95% (12% (w/v) sulfobutyl-β-cyclodextrin in water) (v/v). Formulated compounds were sterile filtered through a 0.22 micron filter before dosing. Compounds were administered to male, 7-11-week-old Sprague-Dawley rats by jugular vein cannula infusion over 30 minutes at a dose of 1 mg/kg. Oral dosing: Compounds were formulated at 1.0 mg/mL in a solution comprising 5% polyethylene glycol 400 and 95% (12% (w/v) sulfobutyl-β-cyclodextrin in water) (v/v). Formulated compounds were administered to male, 7-11 week old Sprague-Dawley rats by oral gavage at a dose of 10 mg/kg or 3 mg/kg.
# Sample collection: Blood collections of about 0.2 mL per time point were performed from jugular vein or other suitable site of each animal, into pre-chilled commercial EDTA-K2 tubes and placed on wet ice until centrifugation. Blood samples were processed for plasma by centrifugation at approximately 4° C., 3,200 g for 10 min. Plasma was collected and transferred into pre-labeled 96 well plate or polypropylene tubes, quick frozen over dry ice and kept at −60° C. or lower until
# Data analysis: Plasma concentration versus time data was plotted in graph and analyzed by non-compartmental approaches using the Phoenix WinNonlin 6.3 software program. Related PK parameters were calculated according to dosing route, e.g., CL, Vdss and C0 for intravenous administration, Cmax, Tmax or % F for extravascular administration, and T1/2, AUC(0-t), AUC(0-inf), MRT(0-t), MRT(0-inf) for all routes.
# T1 sequence (P43220 24-463): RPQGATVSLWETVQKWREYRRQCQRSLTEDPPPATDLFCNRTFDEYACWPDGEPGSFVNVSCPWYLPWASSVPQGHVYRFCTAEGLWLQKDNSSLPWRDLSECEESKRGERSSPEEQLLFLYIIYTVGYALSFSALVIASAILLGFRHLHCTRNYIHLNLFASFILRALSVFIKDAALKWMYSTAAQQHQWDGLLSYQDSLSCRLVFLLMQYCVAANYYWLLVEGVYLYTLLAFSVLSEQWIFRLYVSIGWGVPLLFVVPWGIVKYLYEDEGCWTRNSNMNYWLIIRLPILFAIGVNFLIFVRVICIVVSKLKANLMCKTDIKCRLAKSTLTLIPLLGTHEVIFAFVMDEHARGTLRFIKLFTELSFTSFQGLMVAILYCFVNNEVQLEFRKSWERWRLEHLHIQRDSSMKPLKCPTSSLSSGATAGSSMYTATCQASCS
EC50 (human GLP-1R receptor) [nM],Emax (human GLP-1R receptor) [%],AUC [1] [ng·h/mL],Cmax [1] [ng/mL],half-life [1] [h],bioavailability [1] [%],SMILES
< 10,> 85,2500 to 10000,2000 to 5000,1.5 to 2.5,50 to 85,"COc1cc(C(F)(F)F)ccc1COc1cccc(C2CCN(Cc3nc4c(OC)cc(C(=O)O)cc4n3C)CC2)n1 [Compound 306, 4-Methoxy-2-((4-(6-((2-methoxy-4-(trifluoromethyl)benzyl)oxy)pyridin-2-yl)piperidin-1-yl)methyl)-1-methyl-1H-benzo[d]imidazole-6-carboxylic acid]"
10 to 100,> 85,< 500,< 500,≥ 2.5,25 to 50,"Cn1c(CN2CCC(c3cccc(OCc4ccc(Cl)cc4F)n3)CC2)nc2c(O)cc(C(=O)O)cc21 [Compound 307, 2-((4-(6-((4-Chloro-2-fluorobenzyl)oxy)pyridin-2-yl)piperidin-1-yl)methyl)-4-hydroxy-1-methyl-1H-benzo[d]imidazole-6-carboxylic acid]"
< 10,> 85,2500 to 10000,2000 to 5000,≥ 2.5,50 to 85,"COc1cc(C(=O)O)c(F)c2c1nc(CN1CCC(c3cccc(OCc4ccc(Cl)cc4F)n3)CC1)n2C [Compound 302, 2-((4-(6-((4-Chloro-2-fluorobenzyl)oxy)pyridin-2-yl)piperidin-1-yl)methyl)-7-fluoro-4-methoxy-1-methyl-1H-benzo[d]imidazole-6-carboxylic acid]"
< 10,> 85,,> 5000,1.5 to 2.5,50 to 85,"[2H]C([2H])([2H])Oc1cc(C(=O)O)cc2c1nc(CN1CCC(c3cccc(OCc4ccc(Cl)cc4F)n3)CC1)n2C [Compound 207, 2-((4-(6-((4-chloro-2-fluorobenzyl)oxy)pyridin-2-yl)piperidin-1-yl)methyl)-4-(methoxy-d3)-1-methyl-1H-benzo[d]imidazole-6-carboxylic acid]"
< 10,> 85,500 to 2500,1000 to 2000,1.5 to 2.5,50 to 85,"Cn1c(CN2CCC(c3cccc(OCc4ccc(C#N)cc4F)n3)CC2)nc2c(OCF)cc(C(=O)O)cc21 [Compound 113, 2-((4-(6-((4-Cyano-2-fluorobenzyl)oxy)pyridin-2-yl)piperidin-1-yl)methyl)-4-(fluoromethoxy)-1-methyl-1H-benzo[d]imidazole-6-carboxylic acid]"
< 10,> 85,< 500,< 500,1.5 to 2.5,25 to 50,"C[C@]1(c2ccc(Cl)cn2)Oc2cccc(C3CCN(Cc4nc5c(OC(F)F)cc(C(=O)O)cc5n4C[C@@H]4CCO4)CC3)c2O1 [Compound 78, 2-((4-((S)-2-(5-Chloropyridin-2-yl)-2-methylbenzo[d][1,3]dioxol-4-yl)piperidin-1-yl)methyl)-4-(difluoromethoxy)-1-(((S)-oxetan-2-yl)methyl)-1H-benzo[d]imidazole-6-carboxylic acid]"
10 to 100,> 85,2500 to 10000,> 5000,1.5 to 2.5,> 85,"Cn1c(CN2CCC(c3ccc(F)c(OCc4ccc(C#N)cc4F)n3)CC2)nc2c(OC(F)F)cc(C(=O)O)cc21 [Compound 137, 2-((4-(6-((4-Cyano-2-fluorobenzyl)oxy)-5-fluoropyridin-2-yl)piperidin-1-yl)methyl)-4-(difluoromethoxy)-1-methyl-1H-benzo[d]imidazole-6-carboxylic acid]"
< 10,> 85,500 to 2500,< 500,1.5 to 2.5,50 to 85,"Cn1c(CN2CCC(c3cccc4c3O[C@@H](c3ccc(Cl)cc3F)CO4)CC2)nc2c(OCCF)cc(C(=O)O)cc21 [Compound 299, (S)-2-((4-(3-(4-chloro-2-fluorophenyl)-2,3-dihydrobenzo[b][1,4]dioxin-5-yl)piperidin-1-yl)methyl)-4-(2-fluoroethoxy)-1-methyl-1H-benzo[d]imidazole-6-carboxylic acid]"

# Reference: patent US20240368120A1 (Terns Pharmaceuticals, Inc., priority 2023, published 2024)
